In data set [1] the test system is rat with overactive bladder caused by cerebrovascular disease. The following applies: cited from earlier work.
Data set [2] deals with human with overactive bladder caused by cerebrovascular disease. The settings on record: cited from earlier work.
Another data set concerns cerebral infarction rats. Put plainly: Bladder pressure measurement after intraventricular administration, cerebral infarction rats. It is filed as in vivo, rat. The protocol: After producing cerebral infarction rats, drug infusion tubes were placed in the lateral ventricles of the rats.
The process was conducted in the same manner as Example 5 except that metal tubes were inserted into lateral ventricles upon producing cerebral infarction rats. […] Feasibility of intraventricular administration was determined after injecting ink into the brain, sacrificing the rats and removing the brains to verify on their faces. […] As vehicle, saline was infused for […]. Experiments of five examples for each concentration were conducted.

The subject of data set [3] is overactive bladder model rats (cerebral infarction by left middle cerebral artery embolization). Put plainly: Bladder pressure measurement after intravenous administration, cerebral infarction rats (CI group).
Where [4] appears, read: 5×10^−4 mg/kg and 5×10^−5 mg/kg.

“Also recorded” adds a separate entry of the source.

Consider `COc1ccc(C(=O)N2CCCC2=O)cc1` [Aniracetam], for which the micturition reflex result in data set [1] and in data set [2] was “suppression of micturition reflex is observed” in each case.
In the case of `COc1cc2c(cc1OC)C(=O)C(CC1CCN(Cc3ccccc3)CC1)C2.Cl` (stereo not drawn) [donepezil hydrochloride, 1-benzyl-4-[(5,6-dimethoxy-1-indanone)-2-yl]methylpiperidine hydrochloride], the “bladder capacity, dose comparison” value in the data set with cerebral infarction rats (cerebral infarction group, 5×10^−5 mg/ml) is reported as “most increased”. Moreover, the “increase in bladder capacity” value in the data set on cerebral infarction rats (cerebral infarction rats, 5×10^−5 mg/ml) was 95.8%. Also, the “bladder capacity, difference from vehicle administration group” value is “increased with a significant margin” with cerebral infarction rats (cerebral infarction rats, 5 μl of 5×10^−5 mg/ml and 5×10^−6 mg/ml, hydrochloride); “significant difference from the vehicle administration group” in data set [3] (CI group, 5×10^−4 mg/kg and 5×10^−5 mg/kg, hydrochloride). The bladder capacity entry in the data set with cerebral infarction rats (cerebral infarction rats, 5 μl of 5×10^−7 to 5×10^−4 mg/ml, hydrochloride) is reported as “notably increased”; in data set [3] (CI group, 5×10^−7 to 5×10^−1 mg/kg every 30 minutes, hydrochloride, 1 mg/kg), “increased the bladder capacities; also recorded: gradually increased”. Besides, the micturition contraction pressure result with cerebral infarction rats (respective doses, versus vehicle, hydrochloride) is recorded as “No change; also recorded: no significant difference”; in data set [3] (setting [4]) it was “no change”; in data set [3] (CI group, 5×10^−1 mg/kg) it was “significantly increased”. In data set [3] (setting [4]), the retained urine result is on record as “little retained urine”. In addition, the “increase in bladder capacity (percentage of change from control)” value in data set [3] (CI group, 5×10^−5 mg/kg) was found to be 52.8%. The “percentage of change in bladder capacity” value in data set [3] (CI group, 5×10^−4 to 5×10^−5 mg/kg (bladder capacity most increased)) amounted to 52.8%. For the same compound, the “micturition contraction pressure, versus vehicle administration group” value in data set [3] (CI group, 5×10^−7 to 5×10^−2 mg/kg) was “no significant difference”.

These data come from patent publication US20060172992A1, “Therapeutic agent for overactive bladder resulting from cerebral infarction” (EISAI CO., LTD., priority 2004, published 2006).
